Source: patent US20240270762A1, “PENICILLIN-BINDING PROTEIN INHIBITORS” (priority 2021, published 2024)
Values after ≈ are worked out from the molar mass of the structure shown.

Columns and labels:
P. aeruginosa ATCC 27853 = experiment: microbe, parasite or virus in culture; type: cell-based; details: Pseudomonas aeruginosa, ATCC27853, read-out: MIC P. aeruginosa ATCC 27853
[1] = target: T1, PBP3 from Pseudomonas aeruginosa (PAO1) (Pseudomonas aeruginosa, UniProt G3XD46); experiment: Bocillin-FL fluorescence polarization competition binding, P. aeruginosa PBP3; details: Binding affinity to P. aeruginosa PBP3; fluorescence polarization competition binding assay using Bocillin-FL; read-out: P. aeruginosa PBP3 Potency
T1 construct: made in house
Source text: (§1) To determine the ability of boronic acid-based test PBP inhibitors to bind Penicillin Binding Proteins (PBPs), Bocillin-FL (fluorescently-labeled penicillin V; ThermoFisher Scientific) was used in a fluorescence polarization (FP) competition binding assay to assess inhibitor binding to PBP3 from Escherichia coli (K-12), PBP3 from Pseudomonas aeruginosa (PAO1), PBP1a and PBP3 from Acinetobacter baumannii (ATCC 19606), and PBP2 from Neisseria gonorrhoeae (FA19). PBPs were cloned and purified as described previously (E. coli PBP3, King, D. T, et al., ACS Infectious Diseases 2015, 1, 175-184; P. aeruginosa PBP3, Han et. al., PNAS 2010, 107 (51), 22002-22007; A. baumannii PBPs, Penwell et. al., Antimicrob. Agents Chemother. 2015, 59 (3), 1680-1689; N. gonorrhoeae PBP2, Singh et. al., J. Biol. Chem. 2019, 294 (38), 14020-14032). To establish assay conditions for competition binding, enzyme titration/saturation binding experiments were initially performed. Bocillin-FL was prepared at 0.2 μM in a buffer comprised of 50 mM Hepes (pH 8.0), 300 mM NaCl and 10% (v/v) glycerol for reactions with E. coli, P. aeruginosa and N. gonorrhoeae PBPs, and 25 mM Tris (pH 8.0), 200 mM NaCl, 10% (v/v) glycerol and 0.005% (v/v) Tween 20 for reactions with A. baumannii PBPs. Saturation binding was performed by mixing 40 μl of PBP solutions ranging in concentrations from 0-24 μM with 40 μl of the 0.2 μM Bocillin-FL solution, in individual wells of a black 384-well microplate. FP was measured immediately upon mixing (Excitation, 490 nm; Emission, 520 nm; g-factor, 0.96), using a Cytation3 (BioTek) microplate reader and measured continuously for up to 120 minutes. The FP response stabilized after 15 minutes for P. aeruginosa and A. baumannii PBP3, 30 minutes for E. coli PBP3 and A. baumannii PBP1a, and less than 1 minute for N. gonorrhoeae PBP2. […] The competition binding assay (80 μl final volume) was validated using beta-lactams and PBPs at final concentrations of: 1.5 μM for E. coli PBP3; 0.75 μM for P. aeruginosa PBP3; 1 μM for A. baumannii PBP1a; 0.2 μM for A. baumannii PBP3; and 0.25 μM for N. gonorrhoeae PBP2. Bocillin-FL was at 0.1 μM (0.05 μM with A. baumannii PBP1a) and beta-lactam concentrations ranged from 0-1,000 μM. E. coli PBP3 was incubated with increasing concentrations of ampicillin in a black 384-well microplate (Corning) for 30 minutes. P. aeruginosa PBP3 was incubated for 15 minutes with aztreonam, whereas A. baumannii PBP1a and PBP3 were incubated for 15 minutes with meropenem, and then Bocillin-FL was added followed immediately by the FP measurement for up to 60 minutes. […] The beta-lactam potency was reported as the concentration of beta-lactam required to reduce the amount of PBP bound-Bocillin-FL by 50% (EC50). […] The EC50 of aztreonam was determined to be <0.5 μM for P. aeruginosa PBP3. […] Binding assays for boronic acid PBP inhibitors were performed in an identical fashion for the respective PBPs.

[2] = tested on: P. aeruginosa (ΔmexAB-oprM); experiment: Broth microdilution MIC in CAMHB; type: cell-based; details: Pseudomonas aeruginosa; read-out: MIC P. aeruginosa ΔmexAB-oprM
E. coli AG100 = experiment: microbe, parasite or virus in culture; type: cell-based; details: Escherichia coli, AG100, read-out: MIC E. coli AG100
E. coli D22 = experiment: microbe, parasite or virus in culture; type: cell-based; details: Escherichia coli, D22, read-out: MIC E. coli D22
E. coli AG100A = experiment: Broth microdilution MIC in CAMHB; type: cell-based; details: Escherichia coli, read-out: MIC E. coli AG100A
K. pneumoniae UMM = experiment: microbe, parasite or virus in culture; type: cell-based; details: Klebsiella pneumoniae, read-out: MIC K. pneumoniae UMM
K. pneumoniae SI-117 = experiment: microbe, parasite or virus in culture; type: cell-based; details: Klebsiella pneumoniae, SI117, read-out: MIC K. pneumoniae SI-117
P. aeruginosa ATCC 35151 = experiment: microbe, parasite or virus in culture; type: cell-based; details: Pseudomonas aeruginosa, ATCC35151, read-out: MIC P. aeruginosa ATCC 35151
[3] = target: T2, PBP3 from Escherichia coli (K-12) (Escherichia coli, UniProt P0AD68); experiment: Bocillin-FL fluorescence polarization competition binding, E. coli PBP3
T2 construct: made in house
Source text: as §1

E. coli ATCC 25922 = experiment: microbe, parasite or virus in culture; type: cell-based; details: Escherichia coli, ATCC25922, read-out: MIC E. coli 25922
E. coli 901C = experiment: microbe, parasite or virus in culture; type: cell-based; details: Escherichia coli, read-out: MIC E. coli 901C
A. baumannii ATCC 19606 = experiment: microbe, parasite or virus in culture; type: cell-based; details: Acinetobacter baumannii, ATCC19606, read-out: MIC, A. baumannii ATCC 19606
K. pneumoniae 848844 = experiment: microbe, parasite or virus in culture; type: cell-based; details: Klebsiella pneumoniae, 848844, read-out: MIC K. pneumoniae 848844
[4] = tested on: B. thailandensis ATCC 700388; experiment: microbe, parasite or virus in culture; type: cell-based; details: Burkholderia thailandensis, ATCC700388, read-out: Minimum inhibitory concentration (MIC), B. thailandensis ATCC 700388
[5] = tested on: B. humptydooensis ATCC BAA-2767; experiment: microbe, parasite or virus in culture; type: cell-based; details: Burkholderia humptydooensis, ATCCBAA2767, read-out: Minimum inhibitory concentration (MIC), B. humptydooensis ATCC BAA-2767
A. baumannii PBP1a = target: T3, A. baumannii PBP1a (Acinetobacter baumannii, UniProt A0ABX6CK30); experiment: Bocillin-FL competition binding via gel filtration, A. baumannii PBP1a; details: competition binding assay using Bocillin-FL via gel filtration; read-out: A. baumannii PBP1a Potency
T3 sequence (A0ABX6CK30 1-851): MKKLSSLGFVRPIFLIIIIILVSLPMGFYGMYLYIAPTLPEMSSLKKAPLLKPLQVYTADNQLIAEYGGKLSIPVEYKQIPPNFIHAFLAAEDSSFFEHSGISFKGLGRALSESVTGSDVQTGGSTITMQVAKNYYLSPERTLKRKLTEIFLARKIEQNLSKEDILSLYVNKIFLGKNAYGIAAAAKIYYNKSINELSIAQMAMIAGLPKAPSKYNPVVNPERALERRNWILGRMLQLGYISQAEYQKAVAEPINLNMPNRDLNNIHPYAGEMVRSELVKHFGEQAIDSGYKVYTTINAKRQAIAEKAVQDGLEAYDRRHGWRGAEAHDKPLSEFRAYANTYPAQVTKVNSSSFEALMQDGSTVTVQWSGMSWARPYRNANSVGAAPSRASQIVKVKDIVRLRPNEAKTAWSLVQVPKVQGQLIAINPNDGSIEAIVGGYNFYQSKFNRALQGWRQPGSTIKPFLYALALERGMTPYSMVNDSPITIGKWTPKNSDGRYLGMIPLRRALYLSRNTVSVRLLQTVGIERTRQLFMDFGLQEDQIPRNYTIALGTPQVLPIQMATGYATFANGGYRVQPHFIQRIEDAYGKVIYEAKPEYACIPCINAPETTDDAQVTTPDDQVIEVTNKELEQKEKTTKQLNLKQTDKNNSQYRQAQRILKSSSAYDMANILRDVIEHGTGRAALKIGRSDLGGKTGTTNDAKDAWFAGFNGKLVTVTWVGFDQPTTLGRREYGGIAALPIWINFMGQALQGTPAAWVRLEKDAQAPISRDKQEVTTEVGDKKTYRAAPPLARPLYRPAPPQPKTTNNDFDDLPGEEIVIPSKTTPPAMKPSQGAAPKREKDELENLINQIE
Procedure: (§2) Affinity to A. baumannii PBP1a and PBP2 was assessed a competitive equilibrium binding assay using Bocillin-FL as the reporter molecule. Enzyme was pre-incubated with increasing concentrations of inhibitors, prior to addition of Bocillin and further incubation for 15 minutes. PBP bound with Bocillin-FL was separated by gel filtration using 96-well Zeba Spin size exclusion plates, and the fluorescence measured. The inhibitor affinity (reported as the EC50) was determined by plotting the fraction of PBP bound with Bocillin-FL at each inhibitor concentration against the inhibitor concentration, and fitting the data to the following equation:
(§3) [formula] • where y is the fraction bound at a given inhibitor concentration, ymin is the fraction bound when the enzyme is completely inactivated, ymax is the maximum (uninhibited) fraction bound, n is the Hill coefficient, and x is the inhibitor concentration.

B. pseudomallei Bp82 = experiment: microbe, parasite or virus in culture; type: cell-based; details: Burkholderia pseudomallei, BP82, read-out: Minimum inhibitory concentration, B. pseudomallei Bp82
A. baumannii PBP2 = A. baumannii PBP2 (Acinetobacter baumannii, UniProt D0C8Z9); experiment: Bocillin-FL competition binding via gel filtration, A. baumannii PBP2
Procedure: as §2, §3

N. gonorrhoeae FA1090 = experiment: Liquid broth MIC in Fastidious broth; details: Neisseria gonorrhoeae, FA1090, read-out: Minimum Inhibitory Concentration, FA 1090
[6] = tested on: N. gonorrhoeae ATCC 49226; experiment: Liquid broth MIC in Fastidious broth; details: Neisseria gonorrhoeae, ATCC49226, read-out: Minimum Inhibitory Concentration, ATCC 49226
N. gonorrhoeae WHO Z = experiment: Liquid broth MIC in Fastidious broth; details: Neisseria gonorrhoeae, read-out: Minimum Inhibitory Concentration, WHO Z

T2 sequence (P0AD68 1-577): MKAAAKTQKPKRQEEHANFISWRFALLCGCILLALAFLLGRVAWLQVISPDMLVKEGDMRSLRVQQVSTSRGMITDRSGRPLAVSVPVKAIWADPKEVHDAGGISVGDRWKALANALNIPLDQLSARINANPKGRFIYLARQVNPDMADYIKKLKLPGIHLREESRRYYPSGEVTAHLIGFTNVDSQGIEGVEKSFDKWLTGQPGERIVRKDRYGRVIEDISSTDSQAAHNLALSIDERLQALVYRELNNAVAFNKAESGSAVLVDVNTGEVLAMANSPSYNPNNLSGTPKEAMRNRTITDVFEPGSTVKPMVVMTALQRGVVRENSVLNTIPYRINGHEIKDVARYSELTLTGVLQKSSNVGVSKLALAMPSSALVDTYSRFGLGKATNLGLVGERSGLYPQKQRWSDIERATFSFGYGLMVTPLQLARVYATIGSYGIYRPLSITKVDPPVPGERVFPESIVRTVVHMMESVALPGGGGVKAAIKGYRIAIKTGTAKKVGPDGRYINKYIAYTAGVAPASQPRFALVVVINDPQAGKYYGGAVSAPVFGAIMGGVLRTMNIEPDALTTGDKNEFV
T1 sequence (G3XD46 whole entry): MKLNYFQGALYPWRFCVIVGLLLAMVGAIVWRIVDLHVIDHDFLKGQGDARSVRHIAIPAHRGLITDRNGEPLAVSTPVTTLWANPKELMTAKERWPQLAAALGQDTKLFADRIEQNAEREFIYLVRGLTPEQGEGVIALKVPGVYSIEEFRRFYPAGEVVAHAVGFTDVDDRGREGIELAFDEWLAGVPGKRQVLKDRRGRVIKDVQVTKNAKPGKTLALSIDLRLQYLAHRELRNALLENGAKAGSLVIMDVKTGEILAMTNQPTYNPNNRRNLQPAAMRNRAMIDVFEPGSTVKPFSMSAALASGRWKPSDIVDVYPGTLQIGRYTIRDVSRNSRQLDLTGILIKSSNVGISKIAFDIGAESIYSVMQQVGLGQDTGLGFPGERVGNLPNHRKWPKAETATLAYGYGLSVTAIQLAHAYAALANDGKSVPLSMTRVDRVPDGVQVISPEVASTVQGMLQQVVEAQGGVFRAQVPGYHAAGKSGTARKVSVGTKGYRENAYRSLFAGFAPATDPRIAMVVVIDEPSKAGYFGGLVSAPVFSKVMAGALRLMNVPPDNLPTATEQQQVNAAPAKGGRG
Chain of A. baumannii PBP2 (D0C8Z9 whole entry): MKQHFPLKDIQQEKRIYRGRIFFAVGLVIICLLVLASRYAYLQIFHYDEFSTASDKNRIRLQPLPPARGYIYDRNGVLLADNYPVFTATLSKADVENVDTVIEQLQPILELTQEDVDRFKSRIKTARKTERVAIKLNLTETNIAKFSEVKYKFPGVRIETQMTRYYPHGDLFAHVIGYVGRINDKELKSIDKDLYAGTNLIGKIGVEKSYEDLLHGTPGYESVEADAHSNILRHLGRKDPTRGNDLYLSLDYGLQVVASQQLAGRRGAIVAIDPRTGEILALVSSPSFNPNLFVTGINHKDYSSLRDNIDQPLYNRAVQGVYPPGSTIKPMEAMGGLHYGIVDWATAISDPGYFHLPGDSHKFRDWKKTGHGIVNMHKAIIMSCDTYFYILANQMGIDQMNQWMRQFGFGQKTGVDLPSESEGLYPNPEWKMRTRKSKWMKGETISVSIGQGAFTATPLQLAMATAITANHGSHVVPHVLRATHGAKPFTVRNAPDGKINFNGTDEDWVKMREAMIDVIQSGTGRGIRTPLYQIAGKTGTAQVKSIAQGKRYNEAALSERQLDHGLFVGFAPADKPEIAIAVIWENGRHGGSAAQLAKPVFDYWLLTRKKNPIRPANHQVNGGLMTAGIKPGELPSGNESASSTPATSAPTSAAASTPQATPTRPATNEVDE

SMILES | MIC (P. aeruginosa ATCC 27853) [µg/mL] | IC50 [1] [µM] | MIC [2] [µg/mL] | MIC (E. coli AG100) [µg/mL] | MIC (E. coli D22) [µg/mL] | MIC (E. coli AG100A) [µg/mL] | MIC (K. pneumoniae UMM) [µg/mL] | MIC (K. pneumoniae SI-117) [µg/mL] | MIC (P. aeruginosa ATCC 35151) [µg/mL] | EC50 [3] [µM] | MIC (E. coli ATCC 25922) [µg/mL] | MIC (E. coli 901C) [µg/mL] | MIC (A. baumannii ATCC 19606) [µg/mL] | MIC (K. pneumoniae 848844) [µg/mL] | MIC [4] [µg/mL] | MIC [5] [µg/mL] | EC50 (A. baumannii PBP1a) [µM] | MIC (B. pseudomallei Bp82) [µg/mL] | EC50 (A. baumannii PBP2) [µM] | further results
O=C(N[C@@H](C(=O)N[C@H]1Cc2cccc(C(=O)O)c2OB1O)c1ccc(P(=O)(O)O)cc1)c1cnc2cccn2c1 (single isomer, unassigned) [Example 499] | > 128 | < 10 | 32 to 64 (≈ 56.7 to 113 µM) | > 128 | 32 to 64 (≈ 56.7 to 113 µM) | 32 to 64 (≈ 56.7 to 113 µM) | > 128 | > 128 | 2 to 4 (≈ 3.54 to 7.09 µM) | 10 to 50 | > 128 | 2 to 4 (≈ 3.54 to 7.09 µM) | > 128 | > 128 | – | – | – | – | – | –
O=C(O)c1c(F)ccc2c1OB(O)[C@@H](NC(=O)C(NC(=O)N1CCN(C3CCN(Cc4cc(O)cc(O)c4)CC3)C1=O)c1cc(F)c(O)c(O)c1Cl)C2 (single isomer, unassigned) [Example 612] | – | – | – | – | – | – | – | – | – | – | – | – | – | – | < 1 | < 1 | < 10 | < 1 | 10 to 50 | –
O=C(O)c1c(F)ccc2c1OB(O)[C@@H](NC(=O)C(NC(=O)N1CCN(C3CCN(Cc4ccc(O)c(F)c4)CC3)C1=O)c1cc(F)c(O)c(O)c1Cl)C2 (single isomer, unassigned) [Example 610] | – | – | – | – | – | – | – | – | – | – | – | – | – | – | < 1 | < 1 | < 10 | < 1 | 10 to 50 | –
O=C(N[C@@H](C(=O)N[C@H]1Cc2cccc(C(=O)O)c2OB1O)c1ccc(P(=O)(O)O)cc1)c1cnc2ccnn2c1 (single isomer, unassigned) [Example 187] | > 128 | < 10 | 32 to 64 (≈ 56.6 to 113 µM) | > 128 | 32 to 64 (≈ 56.6 to 113 µM) | > 128 | > 128 | > 128 | 2 to 4 (≈ 3.54 to 7.08 µM) | 10 to 50 | > 128 | 8 to 16 (≈ 14.2 to 28.3 µM) | > 128 | > 128 | – | – | – | – | – | –
O=C(NC(C(=O)N[C@H]1Cc2cccc(C(=O)O)c2OB1O)c1ccc(P(=O)(O)O)cc1)c1ccc2ccnn2c1 (stereo partly drawn) [Example 498, (3R)-2-hydroxy-3-(2-(4-phosphonophenyl)-2-(pyrazolo[1,5-a]pyridine-6-carboxamido)acetamido)-3,4-dihydro-2H-benzo[e][1,2]oxaborinine-8-carboxylic acid] | > 128 | 10 to 50 | > 128 | > 128 | > 128 | > 128 | > 128 | > 128 | 8 to 16 (≈ 14.2 to 28.4 µM) | 50 to 250 | > 128 | 32 to 64 (≈ 56.7 to 113 µM) | > 128 | > 128 | – | – | – | – | – | MIC (N. gonorrhoeae FA1090): 4 to 8 µg/mL (≈ 7.09 to 14.2 µM); MIC [6]: > 64 µg/mL; MIC (N. gonorrhoeae WHO Z): > 64 µg/mL
O=C(N[C@H](C(=O)N[C@H]1Cc2cccc(C(=O)O)c2OB1O)c1ccc(P(=O)(O)O)cc1)c1cnc2ccnn2c1 (single isomer, unassigned) [Example 186] | > 128 | 10 to 50 | > 128 | > 128 | > 128 | > 128 | > 128 | > 128 | 2 to 4 (≈ 3.54 to 7.08 µM) | > 250 | > 128 | 8 to 16 (≈ 14.2 to 28.3 µM) | > 128 | > 128 | – | – | – | – | – | –
